Laboratory results: patent US20100040621A1, “Novel polpeptide and use thereof” (TAKEDA PHARMACEUTICAL COMPANY LIMITED, priority 2005, published 2010)
No end group written: not given here.

Experiments:
AVP secretion = AVP secretion in vivo after ICV administration (plasma AVP by RIA); conditions: rat; for AT-II induced AVP release: ICV preadministration, AT-II (1 nmol/10 μl) ICV 5 minutes after, plasma AVP; for AVP release induced by high salt administration: ICV, hypertonic saline (850 mM NaCl/10 μl) ICV 5 minutes after, plasma AVP 15 minutes after injection
Description: NERP-1, NERP-1-Gly, NERP-2 or NERP-2-Gly was ICV-administered to rats, followed by ICV administration of hypertonic saline (850 mM NaCl/10 μl) or angiotensin II (AT-II) (1 nmol/10 μl) 5 minutes after.
(§1) Blood samples were taken 15 minutes after the injection of NERPs. Plasma AVP was measured using an RIA kit (manufactured by Mitsubishi). Six pieces of PVN and SON were taken from the rat hypothalamus. Each nucleus was preincubated for an hour at 37° C. in medium 199 (25 mM HEPES buffer, pH 7.4, 2.5% fetal calf serum, 2.5% bovine serum and 1% penicillin-streptomycin) equilibrated under 95% O2 (n=4 wells/group). These nuclei were sequentially stimulated 3 times each for 5 minutes, using one of NERP-1 (10^−6 M), NERP-1 (10^−6 M)+AT-II (10^−6 M) and AT-II (10^−6 M). Stimulation periods were separated by 5-minute recovery periods. Similarly, these nuclei were stimulated using one of NERP-2 (10^−6 M), NERP-2 (10^−6 M)+AT-II (10^−6 M), NERP-1-Gly (10^−6 M) and NERP-2-Gly (10^−6 M). After they were thus stimulated, KCl of 6×10^−2 M was added to confirm depolarization-induced secretion. The two pieces from rat posterior pituitary were stimulated by NERPs and AT-II under the same conditions as described above. Aliquots of the medium were provided for RIA to measure AVP. The experiment was replicated 5 times.

SON neurons = assay type: cell-based, rat; conditions: for GABAergic IPSC in the SON neurons: holding potential −20 mV
PVN and SON = assay: AVP secretion in vitro, static incubation of PVN and SON; assay type: cell-based; conditions: rat nuclei in vitro; for basal AVP secretion, static incubation of PVN and SON: peptide 10^−6 M; for AT-II-induced AVP secretion, static incubation of PVN and SON: peptide 10^−6 M + AT-II 10^−6 M
Description: as §1

posterior pituitary = assay: AVP secretion in vitro, static incubation of posterior pituitary; assay type: cell-based; conditions: rat posterior pituitary in vitro, same conditions (10^−6 M)
Description: as §1

[1] = tested on: orexin knockout mice and wild-type littermates; assay: One-hour food intake in orexin knockout mice and wild-type littermates after ICV injection; assay type: in vivo, mouse; conditions: ICV 1 nmol/2 μl saline
Description: (§2) To assess feeding, NERP-1, NERP-2 or NERP-2-Gly (0.1-5 nmol/10 μl) was ICV-injected to rats (n=15 per group) at 09:30. Anti-orexin A IgG (0.25 μg/10 μl, Santa Cruz) and anti-orexin B IgG (0.25 μg/10 μl, Santa Cruz) or anti-MCH IgG (0.5 μg/10 μl, Phoenix) was ICV-injected at 09:00 to rats (n=12 per group). In all cases, IgG was injected […] before the NERP-2 administration. Food intake was monitored for an hour. In mouse experiments, NERP-2 (1 nmol/2 μl saline) or MCH (1 nmol/2 μl saline) was ICV-injected to orexin knockout mice (Cell, 92, 573-585 (1998)) and wild-type littermates (n=5 per group, 4 month-old male), then one-hour food intake was measured. Orexin knockout mice were prepared by targeted mutation in ES cells (Cell, 92, 573-585 (1998)).

free-feeding rats = assay: Feeding experiments in rats after ICV injection; assay type: in vivo, rat
Description: as §2

[2] = tested on: orexin knockout mice and wild-type mice; assay: Locomotor stimulating activity in mice after ICV administration; assay type: in vivo, mouse; conditions: ICV 5 nmol/2 μl saline, counts summed 30 to 120 minutes after administration
Description: Movement of mice given an ICV administration of NERP-2 (5 nmol/2 μl saline) or vehicle was measured in sound- and light-proof cages equipped with an infrared detector (Muromachi Co. Ltd., Tokyo, Japan) as previously described according to the method described in Endocrinology, 144, 4729-4733 (2003). Locomotor activity counts were measured every 15 minutes and summed for the period of 30 minutes to 120 minutes after the administration.

In the case of “NERP-1: VGF-derived peptide; human, rat and mouse sequences are SEQ ID NO: 4, 5 and 6; rat form an amidated 25-amino acid peptide (RPESALLGGSEAGERLLQQGLAQVEA; Neuroendocrine regulatory peptide-1; UniProt O15240 281-306, looked up) [VGF-derived peptide; rat form an amidated 25-amino acid peptide]”, the “AT-II induced AVP release” value (AVP secretion) is reported as “suppressed”, the “AVP release induced by high salt administration” value (AVP secretion) is reported as “dose-dependently suppressed” and the “IPSCs induced by NERP-1 on application of hemoglobin (Hb)” value (SON neurons; Hb 10^−6 M, NO scavenger, added 5 minutes after NERP-1) is reported as “not affected”. For the same substance, the “presynaptic GABAergic currents induced by NERP-1 in presence of tetrodotoxin” value (SON neurons; TTX 10^−6 M, Na+ channel blocker, added 5 minutes after NERP-1) was “remained unchanged”, the “amplitude of IPSC” value (SON neurons; rat SON slice, patch-clamp) was “did not increase” and the “frequency of IPSC” value (SON neurons; rat SON slice, patch-clamp) was “increased”. For the same substance, the “GABAergic IPSC in the SON neurons” value (SON neurons; rat slice, patch-clamp) was “increased”, the “EPSC in the SON neurons” value (SON neurons; rat slice, patch-clamp, holding potential −70 mV) was “did not increase” and the “basal AVP secretion, static incubation of PVN and SON” value (PVN and SON) was “suppressed”. For the same substance, the “AT-II-induced AVP secretion, static incubation of PVN and SON” value (PVN and SON) was “suppressed” and the “AVP secretion from the posterior pituitary” value (posterior pituitary) was “suppressed”.
With “NERP-2: VGF-derived peptide; human, rat and mouse sequences are SEQ ID NO: 7, 8 and 9; rat form an amidated 38-amino acid peptide (QAEATRQAAAQEERLADLASDLLLQYLLQGGARQRGLG; also: rat form amidated, species of this chain not given here; UniProt O15240 310-347, looked up) [VGF-derived peptide; rat form an amidated 38-amino acid peptide]” the “AT-II induced AVP release” value (AVP secretion) was “inhibited”, the “AVP release induced by high salt administration” value (AVP secretion) was “inhibited” and the “food intake in orexin knockout mice” value [1] was “did not stimulate”. For the same substance, the “food intake in wild-type control mice” value [1] was “stimulated”, the “food intake during the light phase” value (free-feeding rats; free-feeding rats, ICV 0.1-5 nmol/10 μl, one-hour intake) was “dose-dependently increased” and the “lowest effective dose for increased food intake” value (free-feeding rats; free-feeding rats, ICV, light phase) was 0.1 nmol. For the same substance, the “behavior compared to the control group” value (free-feeding rats; rats receiving ICV injection) was “remained alert and showed no unusual behavior”, the “duration of orexigenic effect after the ICV injection” value (free-feeding rats; rats, ICV) was “did not last longer than an hour” and the “GABAergic IPSC in the SON neurons” value (SON neurons; rat slice, patch-clamp) was “increased”. For the same substance, the “basal AVP secretion, static incubation of PVN and SON” value (PVN and SON) was “suppressed”, the “AT-II-induced AVP secretion, static incubation of PVN and SON” value (PVN and SON) was “suppressed” and the “total locomotor activity in the orexin knockout mice” value [2] was “did not stimulate”. For the same substance, the “total locomotor activity in the wild-type mice” value [2] was “stimulated”.
